Reference: patent US10526581B2, “Modulation of cardiac stem-progenitor cell differentiation, assays and uses thereof” (priority 2013, dated 2020)

Tests used:
adult rat myocardium = conditions: single high dose of ISO; cited from earlier work
mouse heart [1] = assay: ISO injury in CM-recombined MerCreMer-ZEG and MerCreMer:RYP mice (lineage tracing of new CMs); assay type: in vivo; conditions: 28 days after ISO
Text: BrdU labeling and Ki67 expression by itself cannot establish whether the new CMs are generated by the reported division of pre-existing adult CMs or by the activation and ensuing differentiation of a stem-progenitor cell compartment. To specifically address this issue, we traced the cell lineage of the new CMs. We generated double-transgenic mice (MerCreMer-ZEG) (Hsieh et al., 2007; Loffredo et al., 2011) in which, upon tamoxifen administration, β-galactosidase (β-Gal) is replaced by enhanced green fluorescent protein (GFP) exclusively in cardiac cells which have already activated the Myh6 gene (and, therefore, the transgene carrying the cre recombinase gene) which are either post-mitotic CMs or amplifying cells already committed to the CM lineage (i.e., immature myocytes/myocyte precursors).
In tamoxifen-naïve MerCreMer-ZEG mice, 99±0.2% of the CMs express β-Gal and are negative for GFP (the leakage of the Myh6-Cre construct in these animals is ˜0.2%). Tamoxifen correctly switched β-Gal to GFP in CMs (FIG. 15A-C). […] In this setting, if new CMs (BrdU^pos) originated from division of pre-existing CMs they should be more GFP^pos and the ratio between GFP^pos and β-Gal^pos CMs should remain unchanged at ˜80/20. If instead, the new CMs originate from non-CM cells, they should be β-Gal^pos and produce a “dilution” of GFP^pos CMs with a decrease of the GFP^pos/β-Gal^pos CM ratio (FIG. 15A).
In mice, ISO injection caused the same type of myocardial damage and LV dysfunction shown in rats, resulting in c-kit^poseCSC activation, CM regeneration and recovery of cardiac function (FIG. 22). […] These numbers match the CM loss produced by ISO administration (FIG. 22). In contrast, we detected very few newly generated, BrdU^posβ-Gal^pos, CMs (0.15±0.05%) in saline-treated CTRL mice (FIG. 15E). […] This discrepancy might be due to the different injury models used. In contrast to coronary ligation, although ISO kills a large number of CMs, because it leaves a patent coronary circulation the eCSCs are spared and provides a more physiologic test for the endogenous reparative potential of the adult heart (Ellison et al., 2007b). Furthermore, during the two-week administration of tamoxifen for Cre induction it would be expected that some eCSCs have committed to the myogenic lineage and activated the Myh6 gene with recombination of the transgene and generation of […], as reported by Dong et al. (2012).
Finally, we dissociated to single cells CMs from the hearts of double transgenic MerCreMer:RYP mice obtained by crossing MerCreMer with R26R-EYFP (RYP) mice (Qian et al., 2012), in which the CMs were labeled with the enhanced yellow fluorescent protein (EYFP) upon tamoxifen injection. […]

[2] = system: adult myocytes isolated from Tg^c-kit/GFP mice; assay: ISO in vitro on adult myocytes isolated from Tg^c-kit/GFP mice; assay type: cell-based, mouse; conditions: ISO 10 nM, cultured for 48 hrs
rats after ISO damage = conditions: at 28 days
mouse heart [3] = assay: ISO injury in Lenti-c-kit/Cre recombined RYP mice (c-kit^pos eCSC fate map); assay type: in vivo; conditions: 28 days after ISO
[4] = system: rats with ISO+5-FU cardiomyopathy; assay: echocardiography after tail vein cell injection in ISO+5-FU cardiomyopathy; assay type: in vivo, rat; conditions: (84 d) 3 months

CC(C)NCC(O)c1ccc(O)c(O)c1 (centres unmarked) [ISO, isoproterenol]
LV CMs killed (adult rat myocardium): 8-10% | BrdU^pos CMs (mouse heart [1]; MerCreMer/ZEG mice): 9±2% | GFP^pos CMs (mouse heart [1]; MerCreMer/ZEG mice): 73.5±3.5% | β-Gal^pos CMs (mouse heart [1]; MerCreMer/ZEG mice): 26.5±2% | YFP-marked endogenous CMs (mouse heart [1]; MerCreMer:RYP mice, apex (and sub-endocardium)): ~72% | ANP expression (fetal myocyte gene program) [2]: increased ANP expression | c-kit/GFP transcription in adult myocytes [2]: unable to activate | mortality (rats after ISO damage): 0 of 10 | newly-formed (BrdU^pos) CMs (mouse heart [3]): 9.5±2% | YFP^pos cells in the unfixed CM preparation (FACS) (mouse heart [3]; LV apex): 8.3±1% | EYFP positive CMs, % of total BrdU^pos CMs (mouse heart [3]; LV): 43±3% | EYFP positive CMs, % of total BrdU^pos CMs (mouse heart [3]; apex): 74±7% | YFP^pos cells in the unfixed CM preparation (FACS) (mouse heart [3]; total LV): 2.9±0.5% | EF [4]: 88.6 ± 2.56% | FS [4]: 51.7 ± 3.7% | LVIDd [4]: 5.25 ± 0.42 mm | LVIDs [4]: 2.53 ± 0.31 mm
